Where two headings read alike, the source gives them in different places.
System: p-sites in DNA-damaged AsPC-1 cells
Test: decryptM dose-resolved phosphoproteomics of ATRi in GEM-pre-treated cells
Format: cell-based, human
Conditions: for EC50: Homo sapiens, ASPC1
Method: Cell culture medium was replaced 24 h after seeding. […] For time point 0, AsPC-1 cells were treated with a vehicle and lysed immediately. The final DMSO concentration in all experiments was 0.2%.
Briefly, cells were washed twice with PBS and lysed in SDS lysis buffer (2% SDS in 40 mM Tris-HCl, pH 7.6), followed by sonication for 10 min (30 s on/30 s off) using a Bioruptor (Diagenode). For DNA hydrolysis, samples were boiled at 95 °C for 10 min and incubated with 2% trifluoroacetic acid (TFA) for 1 min, before the reaction was quenched using 4% N-methylmorpholine. Lysate was cleared by centrifugation at 11,000 × g for 5 min and protein concentration was determined using the Pierce BCA Protein Assay Kit (Thermo Scientific).
Using 70% ethanol, samples were then precipitated on beads, followed by washing thrice with 80% ethanol and once with 100% acetonitrile. Subsequently, proteins were reduced and alkylated using 10 mM TCEP, 50 mM chloroacetamide, and 2 mM CaCl2 in 100 mM EPPS/NaOH, pH 8.5 for 1 h at 37 °C, followed by tryptic digestion at 37 °C for 16 h. Peptides were acidified with 1% TFA and desalted on Chromabond HLB plates (30 µm particle size, 10 mg capacity, Machery-Nagel), using 0.1% TFA for equilibration and sample loading, and 0.1% TFA in 70% acetonitrile for peptide elution. Recovered peptides were freeze-dried by vacuum-centrifugation and stored at −20 °C.
Depending on the experiment, samples were either labeled with TMT-11plex (decryptM), TMT-10plex (non-decryptM, quadruplicates), or TMTpro reagent (time-series; all Thermo Scientific). Therefore, dried peptides were reconstituted in 15 µl 100 mM EPPS, pH 8.5 and each treatment condition was labeled with one channel of the respective TMT reagent (5 µl of 25 µg/µl reagent, Appendix Tables S4–S6). The reaction was incubated for 1 h at 23 °C and subsequently quenched with 0.4% hydroxylamine. Then, samples were pooled, acidified with 1% formic acid, and freeze-dried by vacuum-centrifugation. Labeled peptide pools were desalted on C18 Sep-Pak cartridges (37–55 µm particle size, 50 mg capacity, Waters), using 0.1% formic acid as equilibration solvent, and 0.1% formic acid in 60% acetonitrile was used as elution solvent. Eluted peptides were freeze-dried and stored at −20 °C until further use.
Basic reversed-phase (bRP) fractionation of peptides was performed on a Vanquish HPLC (Thermo Scientific). In short, dried peptides were reconstituted in 200 µl 25 mM ammonium bicarbonate, pH 8.0 and directly injected onto a Waters BEH130 XBridge C18 column (3.5 µm, 4.6 × 250 mm). […] Using an automated fraction collector, 96 fractions were collected between min 7 and 55 after injection. Fractions were acidified with 1% formic acid and pooled to 48 fractions, before they were freeze-dried and stored at −20 °C.
Immobilized metal ion affinity chromatography (IMAC) enrichment of phosphorylated peptides was performed on the Bravo automated liquid handling platform using AssayMAP Fe(III)-NTA cartridges (Agilent). In brief, the 48 dried peptide fractions were reconstituted in 0.1% TFA in 80% acetonitrile and further pooled to 12 fractions (200 µl final volume per well). The phosphopeptide enrichment protocol embedded in the Agilent AssayMAP Bravo Protein Sample Prep Workbench v2.0 software was run. Thereby, the cartridges were first primed with 150 μl 0.1% TFA in acetonitrile at 300 μl/min, and equilibrated with 150 μl 0.1% TFA in 80% acetonitrile at 10 μl/min. Then, pooled fractions were loaded at 5 µl/min and further washed three times with 150 μl 0.1% TFA in 80% acetonitrile at 50 μl/min. Enriched peptides were eluted with 60 μl 1% ammonium hydroxide at 5 μl/min.

C[C@@H]1COCCN1c1cc(C2([S@](C)(=N)=O)CC2)nc(-c2cc[nH]c3nccc2-3)n1 [Ceralasertib]
Log2 PTM response (GEM+ATRi vs. GEM) (AASDHPPT-pS258): -0.9 | Log2 PTM response (GEM+ATRi vs. GEM) (BRCA1-pS1239): -1.1 | Log2 PTM response (GEM+ATRi vs. GEM) (BRD8-pS621): -1.7 | Log2 PTM response (GEM+ATRi vs. GEM) (CDKN2AIP-pS198): -1.6 | Log2 PTM response (GEM+ATRi vs. GEM) (CHEK1-pS317): -2 | Log2 PTM response (GEM+ATRi vs. GEM) (CHEK1-pS468): -3.8 | Log2 PTM response (GEM+ATRi vs. GEM) (DHX9-pS321): -1.6 | Log2 PTM response (GEM+ATRi vs. GEM) (EXO1-pS714): -0.7 | Log2 PTM response (GEM+ATRi vs. GEM) (FANCD2-pS319): -1.3 | Log2 PTM response (GEM+ATRi vs. GEM) (HDGF-pS103): -1.4 | Log2 PTM response (GEM+ATRi vs. GEM) (HMGA1-pS9): -2 | Log2 PTM response (GEM+ATRi vs. GEM) (HMGA1-pS36;S44): -1.5 | Log2 PTM response (GEM+ATRi vs. GEM) (HMGA1-pS44): -1.7 | Log2 PTM response (GEM+ATRi vs. GEM) (HSPA4-pS552): -1.1 | Log2 PTM response (GEM+ATRi vs. GEM) (HTATSF1-pS481): -0.6 | EC50 (approximate, from density plot Fig. 4C (peer review file), read-out: EC50 of the majority of pSQ/pTQ sites): ~100 nM | EC50 (approximate, from density plot Fig. 4C (peer review file), read-out: pEC50 of the majority of pSQ/pTQ sites (converted)): ~100 nM | EC50 (p-site dose-response in GEM-pre-treated cells, read-out: EC50, RALY S176): 151 nM | EC50 (p-site dose-response in GEM-pre-treated cells, read-out: pEC50, RALY S176 (converted)): 151 nM | EC50 (read-out: median EC50 across all drug-regulated pSQ/pTQ-sites): 154 nM | Log2 PTM response (GEM+ATRi vs. GEM) (LRRC42-pS385): -2.5 | Log2 PTM response (GEM+ATRi vs. GEM) (NBN-pS397): -1.2 | Log2 PTM response (GEM+ATRi vs. GEM) (NBN-pS615): -0.5 | Log2 PTM response (GEM+ATRi vs. GEM) (NSUN5-pS432): -3 | Log2 PTM response (GEM+ATRi vs. GEM) (PELP1-pS1033): -1.3 | Log2 PTM response (GEM+ATRi vs. GEM) (PHF14-pS294): -1.2 | Log2 PTM response (GEM+ATRi vs. GEM) (PPM1G-pS201): -1.9 | Log2 PTM response (GEM+ATRi vs. GEM) (PPP6R3-pS825): -1.6 | Log2 PTM response (GEM+ATRi vs. GEM) (PSMD4-pS266): -1.3 | Log2 PTM response (GEM+ATRi vs. GEM) (RAD18-pS368): -1.2 | Log2 PTM response (GEM+ATRi vs. GEM) (RIF1-pS1873): -0.6 | Log2 PTM response (GEM+ATRi vs. GEM) (SNRPA-pS115): -1.4 | Log2 PTM response (GEM+ATRi vs. GEM) (TCEA1-pS100;S97): -2.1 | Log2 PTM response (GEM+ATRi vs. GEM) (TCEB3-pS251): -1.6 | Log2 PTM response (GEM+ATRi vs. GEM) (THAP4-pS186): -1.4 | Log2 PTM response (GEM+ATRi vs. GEM) (TOPBP1-pS1504): -1.5 | Log2 PTM response (GEM+ATRi vs. GEM) (TSEN34-pS136): -1.1 | Log2 PTM response (GEM+ATRi vs. GEM) (UHRF1-pS393): -1.4 | Log2 PTM response (GEM+ATRi vs. GEM) (UIMC1-pS171): -2.1 | Log2 PTM response (GEM+ATRi vs. GEM) (ZC3H14-pS135): -1.3 | ATRi Regulation (Curve), RALY S176 (classified by CurveCurator): down | PTM response (norm. to 1 µM GEM) (source data 4B (p-site not named), 1 µM GEM + ATRi 1 nM): 1.20 | PTM response (norm. to 1 µM GEM) (source data 4B (p-site not named), 1 µM GEM + ATRi 3 nM): 0.93 | PTM response (norm. to 1 µM GEM) (source data 4B (p-site not named), 1 µM GEM + ATRi 30 nM): 0.96 | PTM response (norm. to 1 µM GEM) (source data 4B (p-site not named), 1 µM GEM + ATRi 100 nM): 0.97 | PTM response (norm. to 1 µM GEM) (source data 4B (p-site not named), 1 µM GEM + ATRi 300 nM): 0.85 | PTM response (norm. to 1 µM GEM) (source data 4B (p-site not named), 1 µM GEM + ATRi 1000 nM): 0.52 | PTM response (norm. to 1 µM GEM) (source data 4B (p-site not named), 1 µM GEM + ATRi 3000 nM): 0.35 | PTM response (norm. to 1 µM GEM) (source data 4B (p-site not named), 1 µM GEM + ATRi 10000 nM): 0.27 | PTM response (norm. to 1 µM GEM) (source data 5B (p-site not named), 1 µM GEM + ATRi 3 nM): 0.78 | PTM response (norm. to 1 µM GEM) (source data 5B (p-site not named), 1 µM GEM + ATRi 10 nM): 0.81 | PTM response (norm. to 1 µM GEM) (source data 5B (p-site not named), 1 µM GEM + ATRi 30 nM): 0.67 | PTM response (norm. to 1 µM GEM) (source data 5B (p-site not named), 1 µM GEM + ATRi 100 nM): 0.51 | PTM response (norm. to 1 µM GEM) (source data 5B (p-site not named), 1 µM GEM + ATRi 300 nM): 0.34 | PTM response (norm. to 1 µM GEM) (source data 5B (p-site not named), 1 µM GEM + ATRi 1000 nM): 0.16 | PTM response (norm. to 1 µM GEM) (source data 5B (p-site not named), 1 µM GEM + ATRi 3000 nM): 0.11 | PTM response (norm. to 1 µM GEM) (source data 5B (p-site not named), 1 µM GEM + ATRi 10000 nM): 0.09
